Test results as given in patent US9572788B2, “Cell permeable inhibitors of anaphase promoting complex” (President and Fellows of Harvard College, priority 2014, dated 2017).

Tests used:
hTERT-RPE1 H2B-GFP cells = test: Live imaging of mitotic duration in hTERT-RPE1 H2B-GFP cells; format: cell-based, human
Experimental: FIG. 18A is a graph and table showing that proTAME induces a mitotic delay in hTERT-RPE1 H2B-GFP cells. Asynchronous hTERT-RPE1 H2B-GFP cells were treated with 0.06% DMSO, 6 μM proTAME or 12 μM proAAME. Cells were imaged at 12 min interval. Cumulative frequency curves of mitotic duration and cell fate distribution are shown.
The imaging plate was mounted onto a motorized stage (Prior ProScan II) on a Nikon TE2000E PFS inverted microscope fitted with an incubation chamber maintained at 37° C. and supplied with 5% CO2. A 20× Plan Apo 0.75 NA or 40× Plan Fluor 0.75 NA objective lens was used as indicated and images were collected with 2×2 binning. DIC or GFP fluorescent images were taken every 12 min (unless otherwise specified) for 36 h with a Hamamatsu ORCA cooled CCD camera and Nikon Elements Software. TIFF files of each image were exported from Elements and used to build stacks and Quicktime movies with Metamorph imaging software (Molecular Devices). For manual analysis, mitotic duration is counted as the time between the first frame of chromosome condensation and the frame of chromosome segregation (anaphase) or decondensation (mitotic exit in the presence of nocodazole) or cell death (chromosomes shrinking to a small bright dot).

RPE1-H2B-GFP cells = test: Fluorescence live cell imaging with survival (Cox) analysis, RPE1; format: cell-based, human; conditions: proTAME 6 μM; for % rate of mitotic exit: relative to DMSO control, Cox model, apcin/apcin-M 25 μM; for Median mitotic duration: apcin or apcin-M 25 μM
Experimental: RPE1-H2B-GFP or U2OS-H2B-GFP cells were plated in 24-well glass-bottom plates 18-24 hours prior to siRNA transfection using RNAiMax (Invitrogen). After treatment with compound(s), DIC and GFP images were captured at 6-minute intervals for 45 hours. Movies were manually analyzed using Nikon Elements software or Image J.
RPE1-H2B-GFP or U2OS-H2B-GFP cells were plated in 24-well glass-bottom plates (Greiner BioOne, 662892) 18-24 hours prior to siRNA transfection using RNAiMax (Invitrogen). Plates were inserted into a covered chamber supplied with humidified 5% CO2 and mounted onto a motorized microscope stage (Prior Scientific). DIC and FITC images were captured at 6 minute intervals for 45 hours using a Nikon Ti inverted fluorescence microscope fitted with a 37° C. enclosed incubation chamber and using a 20× Plan Apo 0.75 NA objective lens. A Hamamatsu ORCA cooled CCD camera collected the images with 2×2 binning using Nikon Elements software (version 3.0). Movies were manually analyzed using Nikon Elements software or ImageJ. Mitotic duration was defined as the time from nuclear envelope breakdown until anaphase, in the case of normal mitosis, or until exit from prolonged mitosis as indicated by cytoplasmic blebbing accompanied by changes in chromatin as detected by H2B-GFP.
In order to detect differences in mitotic duration among cells in the live-cell imaging screen, a stratified Cox proportional hazards model (Cox, D. R. Regression models and life tables. J Royal Statistics Soc B34, 187-220, (1972)) was fit to censored mitotic duration times (where cells that are not observed exiting mitosis or dying in mitosis are censored at the last known time in mitosis). The Cox proportional hazards model is a semiparameteric approach to modeling time-to-event data, in which covariates are assumed to have constant proportional effects over time relative to a baseline hazard function that can take any form. In this case, stratification on “person” (the individual who analyzed the movie) and “date” (the date the assay was run) allow the baseline hazard function to differ across experimental blocks, but assume a fixed effect of treatment across experimental blocks. The model is thus: hi(t|Z=j)=hj(t)exp(β1×apcini+β2×apcinMi+β3×proTAMEi+β4×proTAMEi:apcinMi+β5×proTAMEi:apcini), j=1 . . . 4 where hi(t) is the hazard function of cell i at time t, hj(t) is the baseline hazard for strata j (with 4 levels, one for each person and date combination), apcini, proTAMEi, and apcinMi are indicator variables for presence or absence of the compounds apcin, proTAME, and apcin-M, respectively in cell i, proTAMEi:apcini is an indicator variable that is 1 if both proTAME and apcin are present in cell i, and 0 otherwise, and proTAMEi:apcinMi is a similar indicator variable for proTAME+apcin-M. In this model, […] represent the effects of apcin, apcin-M, and proTAME alone, while β4 and β5 represent the additional non-additive effect of the compounds beyond what is predicted from the combination of effects of the two compounds alone. This model was fit separately to cells treated with control siRNA or Mad2 siRNA. All statistical analysis was carried out in R 3.0.0 using the functions available as part of the survival package.
In this model, the β coefficients represent the log hazard ratios for exiting mitosis between treated and untreated cells. However, for ease of interpretation the β coefficients are exponentiated to convert them to normal hazard ratios, and then multiplied by 100 to convert to percentages relative to DMSO. These hazard ratios, which are referred to as mitotic exit rate, represent the relative probability that a treated cell in mitosis at time t will exit mitosis in the next time interval compared to an untreated cell.
For ease of interpretation, the treatment effects are presented relative to DMSO for all individual compounds and compound combinations. […]

HeLa cells = test: ProTAME activation analysis (LC/MS) in HeLa cells; format: in vitro ADME, human; conditions: 20 μM
Experimental: ProTAME was added to interphase Xenopus extract at 50 μM or cell growth media at 20 μM. For interphase extract, 800 μl of sample was collected at 0 min, 10 min, 20 min and 30 min after addition of proTAME and diluted to 8 ml with XB. For cell culture, approximately 800,000 cells were collected at 1 h, 2 h and 3 h after addition of proTAME and lysed in 400 μl lysis buffer as described above and subsequently diluted to 4 ml with lysis buffer. The diluted extract or cell lysate was extracted with 1.5 volume of ethyl acetate. The extracts were dried in vacuo and the dry extracts were resuspended in 200 μl of methanol for LC/MS analysis. LC/MS data were obtained using an Agilent series 1200 LC/6130 MS system with a reversed-phase C18 column (Phenomenex Luna C18(2), 4.6 mm×100 mm, 5 μm) and a CH3CN/H2O gradient solvent system beginning with 10% aqueous CH3CN and ending at 100% CH3CN at 20 min. 10 μl of each sample was injected for each analysis.

[1] = Effect on mitosis in MCF10a cells; format: cell-based; conditions: similar doses
[2] = Fig S4A, asynchronous hTERT-RPE1 cells, proAAME 12 μM, proTAME 6 μM

COC(=O)[C@H](CCCN/C(=N\C(=O)OCOC(=O)Cc1ccccc1)NC(=O)OCOC(=O)Cc1ccccc1)NS(=O)(=O)c1ccc(C)cc1 [proTAME]
Average mitotic duration (hTERT-RPE1 H2B-GFP cells; [2]): 819.0 min | Median mitotic duration (hTERT-RPE1 H2B-GFP cells; [2]): 522 min | Median mitotic duration (hTERT-RPE1 H2B-GFP cells; asynchronous hTERT-RPE1, 6 μM): over 8 h | % rate of mitotic exit (RPE1-H2B-GFP cells; Mad2 siRNA): 0.22% | Median mitotic duration (RPE1-H2B-GFP cells; Table 3, control siRNA): 120 | Median mitotic duration (RPE1-H2B-GFP cells; Table 3, mad2 siRNA): 114 | % rate of mitotic exit (RPE1-H2B-GFP cells; control siRNA): 2.32% | Activation of prodrug (HeLa cells): activated efficiently in HeLa cells | Effect on mitotic duration [1]: had no effect
